One test deals with Human PDE10A1 (Homo sapiens, UniProt Q9Y233). The test is described as follows: hPDE10A1 enzyme inhibition ([3H]-cAMP hydrolysis, scintillation counting). The format is biochemical. The conditions noted are these: Human PDE10A1, [3H]-cAMP substrate, 20 minutes at 37° C.; read-out: hPDE10A1 IC50 Band. The procedure: 50 μl samples of serially diluted Human PDE10A1 enzyme were incubated with 50 μl of [^3H]-cAMP for 20 minutes (at 37° C.). Reactions were carried out in Greiner 96 deep well 1 ml master-block. The enzyme was diluted in 20 mM Tris HCl pH7.4 and [^3H]-cAMP was diluted in 10 mM MgCl2, 40 mM Tris.HCl pH 7.4. The reaction was terminated by denaturing the PDE enzyme (at 70° C.) after which [^3H]-5′-AMP was converted to [^3H]-adenosine by adding 25 μl snake venom nucleotidase and incubating for 10 minutes (at 37° C.). Adenosine, being neutral, was separated from charged cAMP or AMP by the addition of 200 μl Dowex resin. Samples were shaken for 20 minutes then centrifuged for 3 minutes at 2,500 r.p.m. 50 μl of supernatant was removed and added to 200 μl of MicroScint-20 in white plates (Greiner 96-well Optiplate) and shaken for 30 minutes before reading on Perkin Elmer TopCount Scintillation Counter.
Human PDE10A1, sequence (Q9Y233 1-779 isoform Q9Y233-1): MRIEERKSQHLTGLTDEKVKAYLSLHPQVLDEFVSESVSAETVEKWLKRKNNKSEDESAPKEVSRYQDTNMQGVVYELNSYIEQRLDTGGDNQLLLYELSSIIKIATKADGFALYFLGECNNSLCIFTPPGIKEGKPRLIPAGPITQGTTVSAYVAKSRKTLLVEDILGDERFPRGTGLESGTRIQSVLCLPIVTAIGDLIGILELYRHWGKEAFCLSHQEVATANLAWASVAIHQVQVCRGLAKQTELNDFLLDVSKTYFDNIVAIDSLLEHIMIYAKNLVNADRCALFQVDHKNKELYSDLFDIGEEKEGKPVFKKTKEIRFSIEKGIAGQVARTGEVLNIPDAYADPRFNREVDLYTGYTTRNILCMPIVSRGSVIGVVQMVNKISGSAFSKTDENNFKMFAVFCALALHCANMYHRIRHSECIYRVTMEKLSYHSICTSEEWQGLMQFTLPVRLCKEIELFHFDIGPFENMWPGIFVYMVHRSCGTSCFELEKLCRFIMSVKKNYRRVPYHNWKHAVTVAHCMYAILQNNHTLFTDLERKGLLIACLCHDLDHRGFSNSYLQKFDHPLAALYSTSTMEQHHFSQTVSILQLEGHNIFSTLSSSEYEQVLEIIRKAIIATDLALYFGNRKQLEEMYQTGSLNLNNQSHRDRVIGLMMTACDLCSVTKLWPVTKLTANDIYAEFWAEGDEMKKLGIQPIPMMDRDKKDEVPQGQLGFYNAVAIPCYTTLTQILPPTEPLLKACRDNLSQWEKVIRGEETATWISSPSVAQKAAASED
To check inhibition profile 11 μl of serially diluted inhibitor was added to 50 μl of [^3H]-cAMP and 50 μl of diluted Human PDE10A1 and assay was carried out as in the enzyme activity assay. Data was analysed using Prism software (GraphPad Inc).

The subject of test [1] is apomorphine induced stereotypes. The following applies: rats; cited from earlier work.
Test [2] deals with rat brain dopamine levels. The conditions noted are these: rats; cited from earlier work.
For test [3], the system named is haloperidol induced catalepsy. The conditions noted are these: rats; cited from earlier work.

pIC50: −log10 of the molar value.

As for `COc1ccc(C2=C(c3ccc(OCc4ccc5ccccc5n4)cc3)COC2=O)cc1` [Example 14], the pIC50 on Human PDE10A1 was not below 7.30.

For the molecule `O=C1OCC(c2ccncc2)=C1c1ccc(OCc2ccc3ccccc3n2)cc1` [Example 37, 4-(Pyridin-4-yl)-3-(4-(quinolin-2-ylmethoxy)phenyl)furan-2(5H)-one], the pIC50 on Human PDE10A1 is not below 7.30.

In the case of `COc1ccc(C2=C(c3ccc(OCc4ccc5ccccc5n4)cc3)C(=O)OC2)cc1F` [Example 53, 4-(3-fluoro-4-methoxyphenyl)-3-(4-(quinolin-2-ylmethoxy)phenyl)furan-2(5H)-one], the negative-log IC50 (pIC50) at Human PDE10A1 is not below 7.30.

In the case of `COc1ccc(C2=C(c3ccc(OCc4ccc5ccccc5n4)cc3)C(=O)OC2)cc1Cl` [Example 54, 4-(3-Chloro-4-methoxyphenyl)-3-(4-(quinolin-2-ylmethoxy)phenyl)furan-2(5H)-one], the pIC50 at Human PDE10A1 was not below 7.30.

With `COc1ccc(C2=C(c3ccc(OCc4ccc5ccccc5n4)cc3)C(=O)OC2)cc1C#N` [Example 55, 2-Methoxy-5-(5-oxo-4-(4-(quinolin-2-ylmethoxy)phenyl)-2,5-dihydrofuran-3-yl)benzonitrile], the pIC50 on Human PDE10A1 was not below 7.30.

Turning to `COc1ccc(C2=C(c3ccc(OCc4ccc5ccccc5n4)cc3)C(=O)OC2)cc1` [Example 59, 4-(4-Methoxyphenyl)-3-(4-(quinolin-2-ylmethoxy)phenyl)furan-2(5H)-one], the negative-log IC50 (pIC50) at Human PDE10A1 is not below 7.30.

As for `CN1CC(c2ccncc2)=C(c2ccc(OCc3ccc4ccccc4n3)cc2)C1=O` [Example 94, 1-Methyl-4-(pyridin-4-yl)-3-(4-(quinolin-2-ylmethoxy)phenyl)-1H-pyrrol-2(5H)-one], the negative logarithm of the IC50 (pIC50) on Human PDE10A1 is not below 7.30.

For the molecule `COc1ccc(C2=C(c3ccc(OCc4ccc5ccccc5n4)cc3)C(=O)N(C)C2)cc1` [Example 125, 4-(4-Methoxyphenyl)-1-methyl-3-(4-(quinolin-2-ylmethoxy)phenyl)-1H-pyrrol-2(5H)-one], the pIC50 on Human PDE10A1 is not below 7.30.

For the molecule `COc1ccc(C2=C(c3ccc(OCc4ccc5ccccc5n4)cc3Cl)COC2=O)cc1` [Example 424, 4-(2-chloro-4-(quinolin-2-ylmethoxy)phenyl)-3-(4-methoxyphenyl)furan-2(5H)-one], the negative-log IC50 (pIC50) on Human PDE10A1 was less than 7.30.

With `O=C1OCC(N2CCOCC2)=C1c1ccc(OCc2ccc3ccccc3n2)cc1` [Example 1085, 4-Morpholino-3-(4-(quinolin-2-ylmethoxy)phenyl)furan-2(5H)-one], the negative-log IC50 (pIC50) on Human PDE10A1 was less than 7.30.

With `O=c1o[nH]c(-c2ccncc2)c1-c1ccc(OCc2ccc3ccccc3n2)cc1` [Example 1094, 3-(Pyridin-4-yl)-4-(4-(quinolin-2-ylmethoxy)phenyl)isoxazol-5(2H)-one], the negative-log IC50 (pIC50) on Human PDE10A1 was not below 7.30.

Turning to `COc1ccc(C2=C(c3ccc(OCc4cccc(C)n4)cc3)COC2=O)cc1` [Example 1095, 3-(4-methoxyphenyl)-4-(4-((6-methylpyridin-2-yl)methoxy)phenyl)furan-2(5H)-one], at Human PDE10A1, the pIC50 was less than 7.30.

Turning to `O=c1[nH][nH]c(-c2ccncc2)c1-c1ccc(OCc2ccc3ccccc3n2)cc1` [Example 1096, 5-(Pyridin-4-yl)-4-(4-(quinolin-2-ylmethoxy)phenyl)-1H-pyrazol-3(2H)-one], the negative logarithm of the IC50 (pIC50) at Human PDE10A1 was less than 7.30.

On to `Cn1[nH]c(-c2ccncc2)c(-c2ccc(OCc3ccc4ccccc4n3)cc2)c1=O` [Example 1097, 2-Methyl-5-(pyridin-4-yl)-4-(4-(quinolin-2-ylmethoxy)phenyl)-1H-pyrazol-3(2H)-one], for which the pIC50 at Human PDE10A1 is less than 7.30.

Consider `O=C1OCC(c2cccnc2)=C1c1ccc(OCc2ccc3ccccc3n2)cc1` [Example 1098, 4-(Pyridin-3-yl)-3-(4-(quinolin-2-ylmethoxy)phenyl)furan-2(5H)-one], for which, at Human PDE10A1, the pIC50 was less than 7.30.

For `O=C1OCC(c2ccncc2)=C1c1ccc(OCc2ccc3ccccc3n2)c(Cl)c1` [Example 1099, 3-(3-chloro-4-(quinolin-2-ylmethoxy)phenyl)-4-(pyridin-4-yl)furan-2(5H)-one], the pIC50 at Human PDE10A1 is less than 7.30.

For `COc1ccc(Cc2nccc3cc(OC)c(OC)cc23)cc1OC` [papaverine], in test [1], the apomorphine induced stereotypes result is listed as “reduces”. The “rat brain dopamine levels” value in test [2] is on record as “reduces”. For the same molecule, the haloperidol induced catalepsy entry in test [3] was “increases”.

By pIC50 is commonly meant the IC50 on a negative log10 scale, so that one unit is a factor of ten.
